In patent US20150216167A1 (Heinrich Heine Universitat Dusseldorf, priority 2011, published 2015):

Key:
[1] = biological target: T1, C4-PEPC (PEP carboxylase from F. trinervia) (Flaveria trinervia, UniProt P30694); experiment: Spectrophotometric coupled assay with malate dehydrogenase, purified PEP carboxylases; format: biochemical; details: C4 (F. trinervia) versus C3 (F. pringlei) enzyme
T1 construct: histidine tag; made in house; host or cells: E. coli
T1 sequence (P30694 1-966): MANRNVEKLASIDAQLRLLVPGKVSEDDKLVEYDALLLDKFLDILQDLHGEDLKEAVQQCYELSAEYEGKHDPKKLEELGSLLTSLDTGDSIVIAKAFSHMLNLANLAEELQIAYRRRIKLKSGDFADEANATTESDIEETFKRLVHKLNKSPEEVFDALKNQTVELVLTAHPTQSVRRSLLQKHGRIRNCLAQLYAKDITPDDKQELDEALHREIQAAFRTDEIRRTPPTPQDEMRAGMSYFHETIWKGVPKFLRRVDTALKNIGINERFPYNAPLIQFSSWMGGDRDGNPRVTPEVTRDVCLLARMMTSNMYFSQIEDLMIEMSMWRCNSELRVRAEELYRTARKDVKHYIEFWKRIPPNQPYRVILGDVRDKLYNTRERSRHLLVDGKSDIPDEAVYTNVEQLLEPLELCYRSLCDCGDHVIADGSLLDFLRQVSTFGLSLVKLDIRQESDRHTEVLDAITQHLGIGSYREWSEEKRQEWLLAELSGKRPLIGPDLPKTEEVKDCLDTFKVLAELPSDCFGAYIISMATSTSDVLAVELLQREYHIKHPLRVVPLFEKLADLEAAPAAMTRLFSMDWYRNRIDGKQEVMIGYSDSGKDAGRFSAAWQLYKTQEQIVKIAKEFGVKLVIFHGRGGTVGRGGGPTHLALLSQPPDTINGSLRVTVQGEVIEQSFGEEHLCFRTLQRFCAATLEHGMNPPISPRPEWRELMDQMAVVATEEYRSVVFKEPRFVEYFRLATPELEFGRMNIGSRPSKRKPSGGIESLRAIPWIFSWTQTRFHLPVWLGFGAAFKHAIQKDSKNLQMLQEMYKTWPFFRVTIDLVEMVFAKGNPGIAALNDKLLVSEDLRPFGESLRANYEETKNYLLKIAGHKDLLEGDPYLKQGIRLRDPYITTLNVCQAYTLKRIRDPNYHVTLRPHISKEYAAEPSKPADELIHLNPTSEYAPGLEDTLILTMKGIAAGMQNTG
From the text: (§1) Inhibition of purified PEP carboxylases from F. pringlei and F. trinervia by compounds selected from the VDS was monitored by a spectrophotometric coupled assay with malate dehydrogenase which reduces the oxaloacetate formed by PEP carboxylase to malate. The simultaneous oxidation of NADH is followed at 340 nm with standard optical equipment. The concentration of the inhibitors selected from the VDS was varied in the coupled assay to determine the half maximal inhibitory concentration (IC50).
as §1, with “(1050).” for “(IC50).”

PEP carboxylase = details: Pairoba et al. (1996); cited from earlier work
[2] = high clog values; cited from earlier work
[3] = tested on: pyruvate phosphate dikinase (PPDK); details: cited from earlier work
bile salt hydrolase = details: cited from earlier work

Molecule | inhibition of PEP carboxylase from C4 plant Amaranthus viridis (PEP carboxylase) | further results
Oc1cc(O)c2c(c1)O[C@H](c1ccc(O)c(O)c1)[C@@H](O)C2 [compound 1, (2R,3S)-2-(3,4-dihydroxyphenyl)-3,4-dihydro-2H-chromene-3,5,7-triol] | – | Selective Inhibition of a C4-PEPC ([1]; measured at 50 micromolar and 500 micromolar, FIG. 2): Selective Inhibition
Nc1nc2ncc(CNc3ccc(C(=O)N[C@@H](CCC(=O)O)C(=O)O)cc3)nc2c(=O)[nH]1 [compound 4, Folic Acid] | – | Selective Inhibition of a C4-PEPC ([1]; measured at 0.025 mM, FIG. 3): Selective Inhibition
O=c1c(O)c(-c2ccc(O)c(O)c2)oc2cc(O)ccc12 [fisetin] | inhibited | –
C=C1CCC[C@H]2[C@](C)(CC3=C(O)C(=O)C=C(OC)C3=O)[C@@H](C)CC[C@]12C [ilimaquinone] | – | solubility in water [2]: low solubility in water
O=c1c(O)c(-c2ccc(O)cc2)oc2cc(O)cc(O)c12 [kaempferol] | inhibited | –
O=c1c(O)c(-c2ccc(O)cc2O)oc2cc(O)cc(O)c12 [morin] | inhibited | –
O=c1c(O)c(-c2cc(O)c(O)c(O)c2)oc2cc(O)cc(O)c12 [myricetin] | inhibited | –
O=c1c(O)c(-c2ccc(O)c(O)c2)oc2cc(O)cc(O)c12 [quercetin] | inhibited | –
C/C=C(\C)c1cc(O)c(C)c2c1Oc1cc(O)cc(C)c1C(=O)O2 [unguinol] | – | selective inhibitors of PPDK ([3]; PPDK from C4 plants maize, millet and proso millet): selective inhibitors; IC50 ([3]; isolated enzyme, read-out: half maximal inhibitory concentration (1050)): 40 µM; inhibits the enzyme bile salt hydrolase (bile salt hydrolase): inhibits
baicalein/baicalin | inhibited | –
